Source: PMC10458858, “Phytochemical Investigation of Lepionurus sylvestris Blume and Their Anti-Diabetes Effects via Anti-Alpha Glucosidase and Insulin Secretagogue Activities Plus Molecular Docking” (Pharmaceuticals, 2023)
Values joined by “and” are separate entries in the source; they are usually repeats but may differ in a detail not shown here. Identical values can stand only once. Like-named read-outs stand apart in the source and are kept apart here. Each block holds one compound with its values, some of them ahead of it.

Columns and labels:
alpha glucosidase enzyme = alpha glucosidase enzyme (Saccharomyces cerevisiae, UniProt P53341); assay: Anti-alpha glucosidase activity and mechanism of action (Michaelis–Menten, Lineweaver–Burk plots); format: biochemical; details: for inhibition at 400 µg/mL: read-out: Alpha Glucosidase Inhibition at 400 μg/mL
Description: The anti-alpha glucosidase activity was determined by following Phoopha et al.’s method. […] The reaction was prepared using a phosphate buffer (pH 7.0), sample (was dissolved in DMSO), […] as substrate, and alpha glucosidase enzyme solution. The test was evaluated by measuring the velocity of the reaction per minute.

[1] = test system: insulin-secreting rat insulinoma (INS-1E) cells; assay: Insulin secretagogue activity (ELISA); format: cell-based; details: 100 μg/mL, 24 h
Description: The experiment was slightly modified from previous reports. In brief, the insulin secretion was determined by testing insulin-secreting rat insulinoma (INS-1E) cells, supported by Prof. Dr. Michael Wink, Institute of Pharmacy and Molecular Biotechnology (IPMB), University of Heidelberg, Germany. The cells were cultured in RPMI-1640 liquid medium and supplementary nutrients for cell culture under the condition of a 37 °C humidified incubator containing 5% CO2. The cells were seeded into 24-well plates at 2 × 10^5 cells. Later, the cells were treated with glucose-free culture media to stop energy consumption in the cell metabolism. Afterward, the minimum concentration of glucose in RPMI-1640 was added to the samples for 24 h. Finally, the insulin secretion was measured for insulin releasing by ELISA technique.

[2] = test system: HGF (human gingival fibroblast)
Description: (§1) The toxicity in human cancer cells was tested on a human breast carcinoma cell line (MCF-7), human cervix adenocarcinoma cell line (HeLa), and human lung carcinoma cell line (A549), which were compared to a human gingival fibroblast cell line (HGF) as the normal cells. These cells were cultured in DMEM liquid medium, supporting supplementary nutrients for cell culture. […] A sulforhodamine B assay was used to evaluate the cytotoxic effects of the samples, following a previous report [19]. In brief, the cancer cells were seeded into 96-well plates at 5 × 10^3 cells and incubated for 24 h. Later, we added the test samples at the final concentration of 25 μg/mL and left the experiment in the incubator for 72 h. After that, the cancer cells were fixed with cold 10% trichloro acetic acid for an hour and then we washed the acid with water. The dried plate was dyed with 0.4% SRB in 1% acetic acid for 30 min, and we washed the color with 1% acetic acid 4 times. The SRB color was dissolved in the cancer cells by adding 10 mM tris-base and measuring with a microplate reader at 492 nm.

[3] = test system: Hela (human cervix adenocarcinoma); assay: in vitro; format: cell-based
Description: as §1

[4] = test system: MCF-7 (human breast adenocarcinoma); assay: in vitro; format: cell-based
Description: as §1

[5] = test system: A549 (human lung adenocarcinoma); assay: in vitro; format: cell-based
Description: as §1

in vitro [6] = format: cell-based, human; details: human; 25 µg/mL, 72 h, SRB; read-out: Cytotoxic Effect at 25 µg/mL (% Inhibition) ± SD, HeLa
Description: as §1

in vitro [7] = format: cell-based, human; details: human; 25 µg/mL, 72 h, SRB; read-out: Cytotoxic Effect at 25 µg/mL (% Inhibition) ± SD, MCF-7
Description: as §1

in vitro [8] = details: human
Description: as §1

in vitro [9] = format: cell-based, human; details: human; 25 µg/mL, 72 h, SRB; read-out: Cytotoxic Effect at 25 µg/mL (% Inhibition) ± SD, A549
Description: as §1

[10] = 400 μg/mL, isolated compounds panel
[11] = control 2.5 mM glucose in RPMI-1640

Chain of alpha glucosidase enzyme (P53341 whole entry): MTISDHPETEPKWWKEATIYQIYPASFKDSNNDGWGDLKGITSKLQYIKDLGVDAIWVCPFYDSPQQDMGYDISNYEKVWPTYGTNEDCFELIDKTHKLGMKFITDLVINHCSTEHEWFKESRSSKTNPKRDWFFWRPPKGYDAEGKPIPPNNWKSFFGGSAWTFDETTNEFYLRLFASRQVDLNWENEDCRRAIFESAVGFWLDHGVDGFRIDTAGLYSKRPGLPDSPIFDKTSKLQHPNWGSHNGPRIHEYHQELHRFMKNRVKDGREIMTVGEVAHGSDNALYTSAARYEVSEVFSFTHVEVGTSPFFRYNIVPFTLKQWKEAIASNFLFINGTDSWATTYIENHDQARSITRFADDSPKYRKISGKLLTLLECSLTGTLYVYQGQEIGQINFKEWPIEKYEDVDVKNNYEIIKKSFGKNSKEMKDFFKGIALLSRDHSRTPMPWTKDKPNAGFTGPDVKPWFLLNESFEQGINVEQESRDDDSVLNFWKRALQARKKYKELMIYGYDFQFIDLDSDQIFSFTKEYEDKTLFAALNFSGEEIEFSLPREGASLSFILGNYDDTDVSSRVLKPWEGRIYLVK

inhibition at 400 µg/mL (alpha glucosidase enzyme; [10]): 6.23 ± 1.84%
Compound: OCC(O)COCC(O)CO (stereo not drawn) [Diglycerol]
total insulin secretion (insulin concentration) [1, 11]: 102.2139 µg/L
total insulin secretion (insulin concentration) ([1]; control 2.5 mM glucose in RPMI-1640, listed as diglycerol): 102.21 µg/L

Compound: Hexane
Cytotoxic Effect at 25 µg/mL (% Inhibition) ± SD, HGF [2]: 48.23 ± 2.96%
cytotoxicity category on HGF cells [2]: moderate (key: non-cytotoxic: cell viability above 80%; weak: 80–60%; moderate: 60–40%; strong: below 40%)
Cytotoxic Effect at 25 µg/mL (% Inhibition) ± SD, HeLa [3]: 83.89 ± 4.31%
Cytotoxic Effect at 25 µg/mL (% Inhibition) ± SD, MCF-7 [4]: 53.54 ± 1.81%
Cytotoxic Effect at 25 µg/mL (% Inhibition) ± SD, A549 [5]: 15.40 ± 2.75%

Compound: CC[C@@]1(O)C(=O)OCc2c1cc1n(c2=O)Cc2cc3ccccc3nc2-1 [Camptothecin, reference compound]
inhibition at 72 h, 25 µg/mL (in vitro [6]): 85.2 ± 1.23%
inhibition at 72 h, 25 µg/mL (in vitro [7]): 92.95 ± 0.33%
inhibition at 72 h, 25 µg/mL (in vitro [8]): 7.35 ± 1.34%
inhibition at 72 h, 25 µg/mL (in vitro [9]): 87.7 ± 1.78%

inhibition at 400 µg/mL (alpha glucosidase enzyme; [10]): 30.3 ± 1.17%
Compound: Cc1c(O)c(C(=O)CCc2ccccc2)c2oc(=O)cc(-c3ccccc3)c2c1O [Interruptin A]
total insulin secretion (insulin concentration) [1, 11]: 102.52 µg/L and 102.5228 µg/L

Compound: COc1ccc(Cl)cc1C(=O)NCCc1ccc(S(=O)(=O)NC(=O)NC2CCCCC2)cc1 [Glibenclamide, reference compound]
total insulin secretion (insulin concentration) [1, 11]: 104.57 µg/L and 104.5722 µg/L

inhibition at 400 µg/mL (alpha glucosidase enzyme; [10]): 58.2 ± 0.83%
Compound: Cc1c(O)c(C(=O)C(O)Cc2ccccc2)c2oc(=O)cc(-c3ccccc3)c2c1O (stereo not drawn) [Interruptin C]
total insulin secretion (insulin concentration) [1, 11]: 102.0534 µg/L
total insulin secretion (insulin concentration) ([1]; control 2.5 mM glucose in RPMI-1640, listed as interruptin C): 102.05 µg/L

Compound: C[C@H]1O[C@H](O[C@H]2[C@H](O)[C@@H](O)[C@@H](O[C@H]3[C@H](O)[C@@H](O)C(O)O[C@@H]3CO)O[C@@H]2CO)[C@H](O)[C@@H](O)[C@@H]1N[C@H]1C=C(CO)[C@@H](O)[C@H](O)[C@H]1O (stereo partly drawn) [Acarbose, reference compound]
Alpha Glucosidase Inhibition at 400 μg/mL (alpha glucosidase enzyme; [10]): 62.14 ± 0.37
Alpha Glucosidase Inhibition at 2 mg/mL (alpha glucosidase enzyme; 2 mg/mL, extracts panel): 88.18 ± 0.53%
mechanism of enzyme inhibition (alpha glucosidase enzyme; Michaelis–Menten and Lineweaver–Burk kinetic plots): competitive

Compound: CC(C)[C@@H](C)/C=C/[C@@H](C)[C@H]1CC[C@H]2C3=CC=C4C[C@@H](O)CC[C@]4(C)[C@H]3CC[C@]12C [Ergosterol]
inhibition at 400 µg/mL (alpha glucosidase enzyme): 18.6 ± 1.42%
total insulin secretion (insulin concentration) [1, 11]: 102.4525 µg/L
total insulin secretion (insulin concentration) ([1]; control 2.5 mM glucose in RPMI-1640, listed as ergosterol): 102.45 µg/L

inhibition at 400 µg/mL (alpha glucosidase enzyme; [10]): 58.48 ± 0.48%
Compound: C=C1CC23COC(=O)C2=CCC[C@@H]3[C@@H]2C[C@H](c3ccoc3)OC(=O)[C@H]12 (stereo partly drawn) [The new diterpene (Lepionurodiolide), 15-16-epoxy-neo-cleoda-3,7(20),13(16),14-tetraene-12,17:18,19-diolide]
total insulin secretion (insulin concentration) ([1]; control 2.5 mM glucose in RPMI-1640, listed as The new diterpene): 52.0566 µg/L
total insulin secretion (insulin concentration) ([1]; control 2.5 mM glucose in RPMI-1640, listed as the new diterpene compound): 52.06 µg/L
